We go through 7 compounds from patent US12552783B2, “Modulators of proteolysis and associated methods of use” (Arvinas Operations, Inc., priority 2018, dated 2026).

For assay [1], the target named is T1, KRas (Homo sapiens, UniProt P01116, G12C). The assay can be described thus: KRas degradation in NCI-H2030 cells by Western blot, normalized to GAPDH (data of Table 14). Also on record: host or cells: NCI-H2030. The assay is classed as cell-based. Particulars: for Dmax: NCI-H2030. Put shortly: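 After overnight adherence and 24 h without FBS, compounds added at 0.3, 1 or 3 μM (0.1% DMSO) for 24 h (VHL-based) or 72 h (others). Western blot of RIPA lysates, KRas signal over GAPDH relative to DMSO; DC50 and DMax derived, or <25% scored visually.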
Background: Immunoblotting shows a protein as a band on a membrane.

Assay [2] has as its target T1, KRas. The assay is described as follows: KRas degradation in SW1573 cells by Western blot, normalized to GAPDH (data of Table 14). The assay is classed as cell-based. Summed up:
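SW1573 cells, homozygous for the KRas G12C mutation and maintained in DMEM with 10% FBS and 1% penicillin-streptomycin, were seeded in 12-well plates, allowed to attach overnight at 37° C. under 5% CO2, then serum-starved for 24 hours before compound exposure. KRas levels were measured by Western blot, normalized to GAPDH, and compared with DMSO controls to give percent degradation, DC50 and Dmax.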

Each structure is given as a SMILES string.

Take `C=CC(=O)N1CCN(c2nc(NCCC(=O)N(C)CCOCCOCCOCCOCC(=O)N[C@H](C(=O)N3C[C@H](O)C[C@H]3C(=O)N[C@@H](C)c3ccc(-c4scnc4C)cc3)C(C)(C)C)nc3c(F)c(-c4cc(O)cc5ccccc45)c(Cl)cc23)CC1` (racemic) [compound 196, (2RS,4SR)-1-((RS)-21-((4-(4-acryloylpiperazin-1-yl)-6-chloro-8-fluoro-7-((SR)-3-hydroxynaphthalen-1-yl)quinazolin-2-yl)amino)-2-(tert-butyl)-18-methyl-4,19-dioxo-6,9,12,15-tetraoxa-3,18-diazahenicosanoyl)-4-hydroxy-N-((RS)-1-(4-(4-methylthiazol-5-yl)phenyl)ethyl)pyrrolidine-2-carboxamide]: the DC50 in assay [1] (H2030) and in assay [2] (SW1573) was at least 1000 nM each time. Also, the “Percent Degradation at Indicated Concentration (μM)” value (shortened to “Percent Degradation”) in assay [1] (H2030, 0.03 μM) is “C (Percent Degradation: C ≤ 35)”; in assay [1] (H2030, 0.1 μM), “C (Percent Degradation: C ≤ 35)”; in assay [1] (H2030, 0.3 μM), “C (Percent Degradation: C ≤ 35)”; in assay [1] (H2030, 1 μM) it was “C (Percent Degradation: C ≤ 35)”; in assay [1] (H2030, 3 μM), “C (Percent Degradation: C ≤ 35)”; in assay [2] (SW1573, 0.03 μM), “C (Percent Degradation: C ≤ 35)”. Besides, the “Percent Degradation” value in assay [2] (SW1573, 0.1 μM) is “C (Percent Degradation: C ≤ 35)”; in assay [2] (SW1573, 0.3 μM), “C (Percent Degradation: C ≤ 35)”; in assay [2] (SW1573, 1 μM), “C (Percent Degradation: C ≤ 35)”; in assay [2] (SW1573, 3 μM), “C (Percent Degradation: C ≤ 35)”. Also, the Dmax in assay [1] and in assay [2] (SW1573) was at most 35% in each case.
For `C=CC(=O)N1CCN(c2nc(O[C@H](C)CN3CCC(OCCOCC(=O)N[C@H](C(=O)N4C[C@H](O)C[C@H]4C(=O)N[C@@H](C)c4ccc(-c5scnc5C)cc4)C(C)(C)C)CC3)nc3c(F)c(-c4cc(O)cc5ccccc45)c(Cl)cc23)CC1` [compound 398, (2S,4R)-1-((2S)-2-(2-(2-((1-((2R)-2-((4-(4-acryloylpiperazin-1-yl)-6-chloro-8-fluoro-7-(3-hydroxynaphthalen-1-yl)quinazolin-2-yl)oxy)propyl)piperidin-4-yl)oxy)ethoxy)acetamido)-3,3-dimethylbutanoyl)-4-hydroxy-N-((S)-1-(4-(4-methylthiazol-5-yl)phenyl)ethyl)pyrrolidine-2-carboxamide], the “Percent Degradation” value in assay [1] (H2030 cells, 0.3 μM) is “C (Percent Degradation: C ≤ 35)”; in assay [1] (H2030 cells, 1 μM), “C (Percent Degradation: C ≤ 35)”; in assay [1] (H2030 cells, 3 μM), “C (Percent Degradation: C ≤ 35)”; in assay [2] (SW1573 cells, 0.01 μM), “C (Percent Degradation: C ≤ 35)”; in assay [2] (SW1573 cells, 0.03 μM) it was “B (35 < B < 70)”; in assay [2] (SW1573 cells, 0.1 μM), “B (35 < B < 70)”. Moreover, the “Percent Degradation” value was “B (35 < B < 70)” in assay [2] (SW1573 cells, 0.3 μM) and “C (Percent Degradation: C ≤ 35)” in assay [2] (SW1573 cells, 1 μM). Besides, the values for the Dmax in assay [1] (H2030 cells) and in assay [2] (SW1573 cells) were at most 35% and 35 to 70%, respectively. Moreover, the 50% degradation concentration (DC50) (in general, the concentration at which degradation of the target reaches its halfway point) in assay [2] (SW1573 cells) is below 100 nM.
`C=CC(=O)N1CCN(c2nc(O[C@H](C)CN3CCC(OCCOCCOCCOCC(=O)N[C@H](C(=O)N4C[C@H](O)C[C@H]4C(=O)N[C@@H](C)c4ccc(-c5scnc5C)cc4)C(C)(C)C)CC3)nc3c(F)c(-c4cc(O)cc5ccccc45)c(Cl)cc23)CC1` [compound 400, (2S ,4R)-1-((2S)-14-((1-((2R)-2-((4-(4-acryloylpiperazin-1-yl)-6-chloro-8-fluoro-7-(3-hydroxynaphthalen-1-yl)quinazolin-2-yl)oxy)propyl)piperidin-4-yl)oxy)-2-(tert-butyl)-4-oxo-6,9,12-trioxa-3-azatetradecanoyl)-4-hydroxy-N-((S)-1-(4-(4-methylthiazo1-5-yl)phenyl)ethyl)pyrrolidine-2-carboxamide]: the “Percent Degradation” value is listed as “C (Percent Degradation: C ≤ 35)” in assay [1] (H2030 cells, 0.3 μM); “C (Percent Degradation: C ≤ 35)” in assay [1] (H2030 cells, 1 μM); “C (Percent Degradation: C ≤ 35)” in assay [1] (H2030 cells, 3 μM); “C (Percent Degradation: C ≤ 35)” in assay [2] (SW1573 cells, 0.01 μM); “C (Percent Degradation: C ≤ 35)” in assay [2] (SW1573 cells, 0.03 μM); “C (Percent Degradation: C ≤ 35)” in assay [2] (SW1573 cells, 0.1 μM). Besides, the “Percent Degradation” value is “C (Percent Degradation: C ≤ 35)” in assay [2] (SW1573 cells, 0.3 μM) and “C (Percent Degradation: C ≤ 35)” in assay [2] (SW1573 cells, 1 μM). For the same compound, the Dmax in assay [1] (H2030 cells) and in assay [2] (SW1573 cells) was at most 35% each time. Besides, the DC50 in assay [2] (SW1573 cells) was at least 1000 nM.
`C=CC(=O)N1CCN(c2nc(O[C@H](C)CN3CCC(OCCOCCOCCOCCOCC(=O)N[C@H](C(=O)N4C[C@H](O)C[C@H]4C(=O)N[C@@H](C)c4ccc(-c5scnc5C)cc4)C(C)(C)C)CC3)nc3c(F)c(-c4cc(O)cc5ccccc45)c(Cl)cc23)CC1` [compound 401, (2S,4R)-1-((2S)-17-((1-((2R)-2-((4-(4-acryloylpiperazin-1-yl)-6-chloro-8-fluoro-7-(3-hydroxynaphthalen-1-yl)quinazolin-2-yl)oxy)propyl)piperidin-4-yl)oxy)-2-(tert-butyl)-4-oxo-6,9,12,15-tetraoxa-3-azaheptadecanoyl)-4-hydroxy-N-((S)-1-(4-(4-methylthiazol-5-yl)phenyl)ethyl)pyrrolidine-2-carboxamide]: the “Percent Degradation” value was “C (Percent Degradation: C ≤ 35)” in assay [1] (H2030 cells, 0.3 μM); “C (Percent Degradation: C ≤ 35)” in assay [1] (H2030 cells, 1 μM); “C (Percent Degradation: C ≤ 35)” in assay [1] (H2030 cells, 3 μM); “C (Percent Degradation: C ≤ 35)” in assay [2] (SW1573 cells, 0.01 μM); “C (Percent Degradation: C ≤ 35)” in assay [2] (SW1573 cells, 0.03 μM); “C (Percent Degradation: C ≤ 35)” in assay [2] (SW1573 cells, 0.1 μM). The “Percent Degradation” value in assay [2] (SW1573 cells, 0.3 μM) is given as “C (Percent Degradation: C ≤ 35)”; in assay [2] (SW1573 cells, 1 μM) it was “C (Percent Degradation: C ≤ 35)”. The Dmax in assay [1] (H2030 cells) and in assay [2] (SW1573 cells) was at most 35% throughout. Further, the DC50 in assay [2] (SW1573 cells) is at least 1000 nM.
Take `Cc1ncsc1-c1ccc([C@H](C)NC(=O)[C@@H]2C[C@@H](O)CN2C(=O)[C@@H](NC(=O)COCCOCCOCCOCCO[C@@H]2C[C@@H](COc3nc4c(c(N5CCN(C(N)=O)[C@@H](CC#N)C5)n3)CCN(c3cccc5ccccc35)C4)N(C)C2)C(C)(C)C)cc1` [compound 537, (S)-2-(cyanomethyl)-4-(2-(((2S,4R)-4-(((S)-16-((2S,4R)-4-hydroxy-2-(((S)-1-(4-(4-methylthiazol-5-yl)phenyl)ethyl)carbamoyl)pyrrolidine-1-carbonyl)-17,17-dimethyl-14-oxo-3,6,9,12-tetraoxa-15-azaoctadecyl)oxy)-1-methylpyrrolidin-2-yl)methoxy)-7-(naphthalen-1-yl)-5,6,7,8-tetrahydropyrido[3,4-d]pyrimidin-4-yl)piperazine-1-carboxamide]: the “Percent Degradation” value is “C (Percent Degradation: C ≤ 35)” in assay [2] (SW1573 cells, 0.3 μM); “C (Percent Degradation: C ≤ 35)” in assay [2] (SW1573 cells, 1 μM); “C (Percent Degradation: C ≤ 35)” in assay [2] (SW1573 cells, 3 μM).
On to `CN1C[C@H](OCCOCCOc2ccc3c(c2)C(=O)N(C2CCC(=O)NC2=O)C3=O)C[C@H]1COc1nc2c(c(N3CCN(C(N)=O)[C@@H](CC#N)C3)n1)CCN(c1cccc3ccccc13)C2` (stereo partly drawn) [compound 539, (2S)-2-(cyanomethyl)-4-(2-(((2S,4R)-4-(2-(2-((2-(2,6-dioxopiperidin-3-yl)-1,3-dioxoisoindolin-5-yl)oxy)ethoxy)ethoxy)-1-methylpyrrolidin-2-yl)methoxy)-7-(naphthalen-1-yl)-5,6,7,8-tetrahydropyrido[3,4-d]pyrimidin-4-yl)piperazine-1-carboxamide], for which the “Percent Degradation” value is given as “C (Percent Degradation: C ≤ 35)” in assay [2] (SW1573 cells, 0.03 μM); “C (Percent Degradation: C ≤ 35)” in assay [2] (SW1573 cells, 0.1 μM); “C (Percent Degradation: C ≤ 35)” in assay [2] (SW1573 cells, 0.3 μM); “C (Percent Degradation: C ≤ 35)” in assay [2] (SW1573 cells, 1 μM); “C (Percent Degradation: C ≤ 35)” in assay [2] (SW1573 cells, 3 μM).
As to `CN1C[C@H](OCCOCCNc2cccc3c2C(=O)N(C2CCC(=O)NC2=O)C3=O)C[C@H]1COc1nc2c(c(N3CCN(C(N)=O)[C@@H](CC#N)C3)n1)CCN(c1cccc3ccccc13)C2` (stereo partly drawn) [compound 543, (2S)-2-(cyanomethyl)-4-(2-(((2S,4R)-4-(2-(2-((2-(2,6-dioxopiperidin-3-yl)-1,3-dioxoisoindolin-4-yl)amino)ethoxy)ethoxy)-1-methylpyrrolidin-2-yl)methoxy)-7-(naphthalen-1-yl)-5,6,7,8-tetrahydropyrido[3,4-d]pyrimidin-4-yl)piperazine-1-carboxamide], the “Percent Degradation” value in assay [2] (SW1573 cells, 0.3 μM) was “C (Percent Degradation: C ≤ 35)”; in assay [2] (SW1573 cells, 1 μM), “C (Percent Degradation: C ≤ 35)”; in assay [2] (SW1573 cells, 3 μM) it was “C (Percent Degradation: C ≤ 35)”.
